Series [1] has as its system KRAS^G12C-positive over KRAS^G12C-negative cancer cell lines. In words: Growth inhibition of KRAS G12C-positive versus KRAS G12C-negative cancer cell lines. In kind it is cell-based.
For series [2], the system named is KRAS^G12C-positive cancer cell lines. The series is described as follows: Mechanism of action studies in KRAS G12C-positive cancer cell lines. In kind it is cell-based.
The test system of series [3] is KRAS^G12C-positive lung tumors. The series is described as follows: Nonclinical xenograft models of KRAS G12C-positive lung tumors. It counts as in vivo.
Series [4] can be described thus: Risks associated with administration of Compound 1. Particulars: in vivo.
Series [5] relates to CT26.KRAS12C-Clone #12:B2G9 Syngeneic Colorectal (CRC) Tumors. In words: Anti-tumor efficacy in CT26.KRAS12C-Clone #12:B2G9 syngeneic colorectal (CRC) tumor model. In kind it is in vivo, Balb/c mice. As for the experimental part:
The combination of the adipate salt of Compound 1 with anti-PD-L1 monoclonal antibody (mAb) was assessed in the CRISPR-engineered CT26.KRAS12C-Clone #12:B2G9 mouse colorectal (CRC) syngeneic tumor model.
Test Agents. The adipate salt of Compound 1 was in a solution at a concentration of 7.5 mg/mL in 0.5% (w/v) methylcellulose. Anti-PD-L1 mAbs (Mu IgG1 anti-PD-L1 (6E11); hereafter referred to as anti-PD-L1) was in a solution in Histidine Buffer #8 ([…] Histidine Acetate, […] Sucrose, 0.02% Tween 20™, pH 5.5). The oral-dosed vehicle control was 0.5% (w/v) methylcellulose. Test agents were stored in a refrigerator set to maintain a temperature range of 4° C.-7° C. All treatments and vehicle control dosing solutions were prepared once a week for three weeks.
Female Balb/c mice that were 9-10 weeks old were obtained from Charles River Laboratory (Hollister, CA) weighing an average of 22 g. Only animals that appeared to be healthy and that were free of obvious abnormalities were used for the study. Mus musculus colon carcinoma CT26 cells were obtained from the American Type Culture Collection (Rockville, MD). CT26.KRAS12C-Clone #12:B2G9 is derived from CRISPR knock-in of G12C in CT26 cells. Cells were cultured in vitro, harvested in log-phase growth, and resuspended in Hank's Balanced Salt Solution (HBSS) containing Matrigel (BD Biosciences; San Jose, CA) at a 1:1 ratio. The cells were then implanted subcutaneously in the right lateral thorax of 70 Balb/c mice. Each mouse was injected with 0.1×10^6 cells in a volume of 100 μL. Tumors were monitored until they reached a mean tumor volume of 159-228 mm^3. Mice were distributed into six groups based on tumor volumes with n=8 mice per group. The mean tumor volume across all six groups was 198 mm^3 at the initiation of dosing.
[…] The MC vehicle and adipate salt of Compound 1 were administered on QD orally (PO) by gavage for 21 days in a volume of 100 μL. The isotope control mAbs and anti-PD-L1 mAbs were administered intravenously (IV) at 10 mg/kg for the first dose, and then dosed intraperitoneally (IP) at 5 mg/kg for subsequent doses on a twice weekly (BIW) schedule.
Tumor sizes and mouse body weights were recorded twice weekly over the course of the study. […]
Dose Preparation and Tumor and Body Weight Measurement. All concentrations were calculated based on a mean body weight of 25 g for the […] mouse strain used in this study. Tumor volumes were measured in two dimensions (length and width) using Ultra Cal-IV calipers (model 54-10-111; Fred V. Fowler Co.; Newton, MA) and analyzed using Excel, version 14.2.5 (Microsoft Corporation; Redmond WA). The tumor volume was calculated with the following formula: Tumor size(mm^3)=(longer measurement×shorter measurement^2)×0.5 […]

For another series, the system named is NSCLC. Particulars: patients in clinical studies, cited from earlier work.

Where a name gives a salt, the structure may show the parent alone.

Data on three compounds can be found in patent US12171763B2, “Methods and compositions comprising a KRASG12C inhibitor and a PD-L1 binding antagonist for treating lung cancer” (Genentech, Inc., priority 2020, dated 2024).

As for `C=CC(=O)N1CCN(c2nc(OC[C@@H]3CCCN3C)nc3c(F)c(-c4nc(N)cc(C)c4C(F)(F)F)c(Cl)cc23)[C@@H](C)C1` (atropisomer, axis not shown) [Compound 1, 1-((S)-4-((R)-7-(6-amino-4-methyl-3-(trifluoromethyl)pyridin-2-yl)-6-chloro-8-fluoro-2-(((S)-1-methylpyrrolidin-2-yl)methoxy)quinazolin-4-yl)-3-methylpiperazin-1-yl)prop-2-en-1-one], the “selectivity in growth inhibition” value in series [1] was “over 20,000 fold”. Moreover, in series [2], the apoptosis induction entry is “apoptosis induction is observed”; the “downstream MAPK pathway components (pERK, pS6) and KRAS target genes (DUSP6, SPRY4)” value is on record as “inhibited”. Also, the “single-agent activity on tumor growth” value in series [3] was “inhibits tumor growth”. Besides, the “risks associated with administration” value in series [4] was “diarrhea, nausea, vomiting, oral mucosal irritation, minimal to mild transaminase elevation, and phototoxicity”.

Take `C=CC(=O)N1CCN(c2nc(OC[C@@H]3CCCN3C)nc3c(F)c(-c4nc(N)cc(C)c4C(F)(F)F)c(Cl)cc23)[C@@H](C)C1` (atropisomer, axis not shown) [adipate salt Compound 1, 1-((S)-4-((R)-7-(6-amino-4-methyl-3-(trifluoromethyl)pyridin-2-yl)-6-chloro-8-fluoro-2-(((S)-1-methylpyrrolidin-2-yl)methoxy)quinazolin-4-yl)-3-methylpiperazin-1-yl)prop-2-en-1-one]: the “partial responses (PRs)” value in series [5] (fraction of mice, Compound 1 adipate 30 mg/kg PO QD, anti-PD-L1 10/5 mg/kg BIW) is recorded as “⅜”. The “CR (complete response)” value in series [5] (number of mice of 8, CR = 100% decrease in tumor volume, Compound 1 adipate 30 mg/kg, anti-PD-L1 10/5 mg/kg) is 0. The “PR (partial response)” value in series [5] (number of mice of 8, PR = >50% decrease from initial tumor volume, Compound 1 adipate 30 mg/kg, anti-PD-L1 10/5 mg/kg) is 3. The “% TGI (estimated)” value in series [5] (tumor growth inhibition based on AUC, relative to vehicle, Compound 1 adipate 30 mg/kg PO QD, anti-PD-L1 10 mg/kg IV first dose then 5 mg/kg IP BIW) is on record as 123%.

With `C=CC(=O)N1CCN(c2nc(=O)n(-c3c(C)ccnc3C(C)C)c3nc(-c4c(O)cccc4F)c(F)cc23)[C@@H](C)C1` [AMG 510, sotorasib], in the series on NSCLC (overall), the treatment-related adverse events is listed as 56.6 % of patients. In the series with NSCLC, the “Grade 3 events occurring in more than one patient” value was “ALT increase, diarrhea, anemia, AST increase, and alkaline phosphatase increase”; the “treatment-related Grade 3 or 4 event” value is listed as 11.6 % of patients; the “treatment-related serious adverse event” value is recorded as 1.6 % of patients.
